Results published in patent US20090061022A1, “Pharmaceutical composition comprising arsenite for the treatment of malignancy” (priority 2004, published 2009).
“And” between values parts separate entries of the source, which are not always exact repeats. Equal values may be shown once. Marks after values point to notes of the source that are not given here.

Experiments:
[1] = test system: panel of 12 human cancer cell lines; test: Cytotoxic activity, whole panel of 12 human cancer cell lines, modified propidium iodide assay; settings: for times more potent than arsenic acid sodium salt: panel of 12
Description: Nine kinds of human cancer cell lines out of six kinds of cancers were grown at 37° C. under a controlled atmosphere of 95% air and 5% CO2. The cells were grown on monolayer cultures of RPMI 1640 cell culture medium supplemented with 10% fetal calf serum.
The grown cells were harvested from exponential phase cultures by trypsinization and counted. The counted cells were placed in a plate, which has ninety six wells. Each well on the plate is in a shape of a flat-bottomed microtitre. Density of the cells in a suspension was adjusted depending on the cell line. The suspension was prepared by diluting the grown cells with the culture medium (RPMI 1640). Concentration of the cells were varied from 5×10^4 to 1×10^5 viable cells/ml. 100 μl of the suspension was placed in each well of the plate. […] Then add 50 μl of culture medium (RPMI 1640) only to 6 wells, 50 μl/well, among the 96 wells of one plate. It is called controlled. One well is filled with culture medium plus 5-FU. And another 50 μl of culture medium plus one of the stock solutions were added to each of the left 89 wells to allow cells to resume exponential growth.
In a further study, the cytotoxic activity profile of sodium meta-arsenite and arsenic acid sodium salt was investigated in different panels containing twelve (12) human cancer cell lines from eight (8) kinds of human cancers. The cancer cell samples were prepared as described in 1-1-B. Propidium iodide fluorescence assay method for this test was modified as the follows.

RXF 944LX = test: Anticancer activity in RXF 944LX cancer bearing nude mice, intermittent and daily schedules; settings: for MTD: i.p., RXF 944LX
Description: Cancer fragments (1-2 mm in diameter), obtained from xenografts in serial passage in nude mice, were implanted subcutaneously (S.C.) in a flank of male NRMI nude mice (one fragment per mouse). Mice with appropriate cancer volumes (5-7 mm in diameter) were randomly distributed to treatment and control groups (4 mice/group). The start of treatment was day 0. Cancer volume and body weights were measured at least twice per week.
The cancer volume of each animal was determined by two-dimensional measurement using calipers. The volume was calculated according to the formula: (a×b^2)×0.5; wherein a and b represent two perpendicular diameters in which a (length) is the larger diameter and b (width) the smaller diameter.
Relative cancer volumes (RCV) were calculated for each individual cancer by dividing the cancer volume on day X by the cancer volume on day 0 multiplied by 100%. The cancer volume of a treatment group was expressed as the median RCV of all mice of the group. Median RCV values were used for drawing growth curves and treatment evaluation. Optimal cancer growth inhibition at a particular day within the treatment period was calculated from the median RCV values of the treated (T) versus the controlled (C) group multiplied by 100%. A T/C value<50% was considered as anti-cancer activity.
In the experiment with renal cancer RXF 944LX, the anticancer activity of the compounds was explored using two administration schedules; 1) intermittent schedule of 4 days×3, and 2) a daily schedule for 2 weeks (days 0-4, 7-11).
The dose levels chosen for sodium meta-arsenite and arsenic acid sodium salt in these schedules were based on the experience in the 1st experiment. Additional small dose finding studies were executed.

ALL-SCID 4 = test: Anticancer activity in human leukemia model ALL-SCID 4; settings: for BW loss % (day) / Drug-related deaths: days 34-54
From the text: Anticancer activity of the sodium meta-arsenite and arsenic trioxide against two human paediatric acute lymphoblastic leukemia (ALL) models in vivo, ALL-SCID 4 was investigated to compare.
Male NOD/SCID mice (deficient in T and B lymphocytes, NK cells and functional macrophages) were transplanted s.c. on day 0 with fragments of ALL-SCID 4 cancers, which were obtained from mice used for routine passage of the cancers. Mice were randomized to the scheduled treatment groups.
Sodium meta-arsenite was administered orally at 2, 4 and 6 mg/kg/day (⅓ MTD, ⅔ MTD and MTD) once every day from day 34-54 after transplantation. The vehicle control (5% glucose in water) was administered i.p. (10 ml/kg).
Sodium meta-arsenite was dissolved in ready-to-use sterile infusion (5% (w/v) glucose in aqua injectabila). Arsenic trioxide was dissolved in 25 mM NaOH then dissolved in 5% glucose in aqua injectabila. The solutions were prepared freshly on the day of therapy for each administration.

[2] = panel of 12 human cancer cell lines, 4 days
[3] = 8 mg/kg i.p., days 0-4, 7, 14-18

**Q.** With O=[As][O-].[Na+] [Sodium meta-arsenite, sodium meta-arsenite] as the compound, how does the “human cancer cell lines in which active, percent of 12” value ([1]; 1 μg/ml) read?
**A.** The value was 33%.

**Q.** And the “human cancer cell lines in which active, percent of 12” value ([1]; dose level 10 μg/ml)?
**A.** The value was 100%.

**Q.** What about the “human cancer cell lines in which active, percent of 12” value ([1]; dose level 100) of the same compound?
**A.** The value was 100%.

**Q.** And the “cytotoxic activity in panel of 12” value ([1]; dose level lower than 1 μg/ml)?
**A.** The value was “did not display any cytotoxic activity at all”.

**Q.** What about the “times more potent than arsenic acid sodium salt” value ([1]; in μg/ml) of the same compound?
**A.** Its value is “over 20 times”.

**Q.** What about the “times more potent than arsenic acid sodium salt” value ([1]; on a molar basis) of the same compound?
**A.** Its value is “approximately 10 times”.

**Q.** And the “Mean IC50” value [1, 2]?
**A.** The value was 0.9 µg/mL.

**Q.** What about the “Mean IC70” value [1, 2] of the same compound?
**A.** The value was 2.0 μg/ml and 15 μM.

**Q.** And the “Mean IC90” value [1, 2]?
**A.** The value was 6.8 µg/mL.

**Q.** And the IC50 ([1]; read-out: Mean IC50, panel of 12 human cancer cell lines, 4 days)?
**A.** Its IC50 is 7 µM.

**Q.** And the IC90 ([1]; read-out: Mean IC90, panel of 12 human cancer cell lines, 4 days)?
**A.** The IC90 was 52 µM.

**Q.** And the “BW loss % (day)” value (RXF 944LX; 4 mg/kg i.p., days 0-4, 7-11)?
**A.** Its value is −3 (7) %.

**Q.** And the Drug-related deaths (RXF 944LX; 4 mg/kg i.p., days 0-4, 7-11)?
**A.** The Drug-related deaths was 2/6.

**Q.** What about the “SGD (specific growth delay)” value (RXF 944LX; 4 mg/kg i.p., days 0-4, 7-11) of the same compound?
**A.** Its value is 0.1.

**Q.** And the T/C % (RXF 944LX; 4 mg/kg i.p., days 0-4, 7-11)?
**A.** Its T/C % is 55%.

**Q.** And the “BW loss % (day)” value (RXF 944LX; 5 mg/kg i.p., days 0, 4, 8)?
**A.** Its value is −2 (3) %.

**Q.** And the Drug-related deaths (RXF 944LX; 5 mg/kg i.p., days 0, 4, 8)?
**A.** Its Drug-related deaths is 0/6.

**Q.** What about the “SGD (specific growth delay)” value (RXF 944LX; 5 mg/kg i.p., days 0, 4, 8) of the same compound?
**A.** The value was −0.5.

**Q.** And the T/C % (RXF 944LX; 5 mg/kg i.p., days 0, 4, 8)?
**A.** The T/C % was 84%.

**Q.** And the “BW loss % (day)” value (RXF 944LX; [3])?
**A.** The value was −14 (10) %.

**Q.** What about the Drug-related deaths (RXF 944LX; [3]) of the same compound?
**A.** Its Drug-related deaths is 3/6.

**Q.** And the Drug-related deaths (RXF 944LX; 10 mg/kg i.p., days 0, 4, 8)?
**A.** The Drug-related deaths was 5/6.

**Q.** What about the MTD (RXF 944LX; daily schedule (days 0-4, 7-11)) of the same compound?
**A.** The MTD was 4 mg/kg/day.

**Q.** What about the MTD (RXF 944LX; intermittent schedule (4 days×3)) of the same compound?
**A.** Its MTD is 5 mg/kg/day.

**Q.** What about the “BW loss % (day)” value (ALL-SCID 4; 2 mg/kg p.o.) of the same compound?
**A.** Its value is 0 (44) %.

**Q.** What about the Drug-related deaths (ALL-SCID 4; 2 mg/kg p.o.) of the same compound?
**A.** The Drug-related deaths was 0/8.

**Q.** And the T/C % (ALL-SCID 4; 2 mg/kg p.o., days 34-54 (⅓ MTD))?
**A.** Its T/C % is 38* %.

**Q.** And the T/C % (ALL-SCID 4; 2 mg/kg p.o., days 34-54 (⅓ MTD), listed as sodium meta-arsenite)?
**A.** The T/C % was 38%.

**Q.** And the “BW loss % (day)” value (ALL-SCID 4; 4 mg/kg p.o.)?
**A.** Its value is “+5 (44) %”.

**Q.** What about the Drug-related deaths (ALL-SCID 4; 4 mg/kg p.o.) of the same compound?
**A.** Its Drug-related deaths is 0/8.

**Q.** What about the T/C % (ALL-SCID 4; 4 mg/kg p.o., days 34-54 (⅔ MTD)) of the same compound?
**A.** Its T/C % is 55* %.

**Q.** And the T/C % (ALL-SCID 4; 4 mg/kg p.o., days 34-54 (⅔ MTD), listed as sodium meta-arsenite)?
**A.** Its T/C % is 55%.

**Q.** What about the “BW loss % (day)” value (ALL-SCID 4; 6 mg/kg p.o.) of the same compound?
**A.** The value was “+5 (44) %”.

**Q.** And the Drug-related deaths (ALL-SCID 4; 6 mg/kg p.o.)?
**A.** Its Drug-related deaths is 0/8.

**Q.** And the T/C % (ALL-SCID 4; 6 mg/kg p.o., days 34-54 (MTD))?
**A.** The T/C % was 48* %.

**Q.** And the T/C % (ALL-SCID 4; 6 mg/kg p.o., days 34-54 (MTD), listed as sodium meta-arsenite)?
**A.** The T/C % was 48%.

**Q.** And the MTD (ALL-SCID 4; small dose finding studies prior to the ALL-SCID 4 study)?
**A.** The MTD was 6 mg/kg/day.

**Q.** And the “Body weight loss and lethality” value (ALL-SCID 4; treated groups 2, 4, 6 mg/kg/day p.o.)?
**A.** The value was “not observed”.
